Results published in patent US20240115654A1, “INTRAVENOUS ADMINISTRATION OF ENGINEERED ANTIMICROBIAL AMPHIPHILIC PEPTIDES” (priority 2021, published 2024).
Peptide text beside a SMILES is read from it.

Description: All subjects who met eligibility criteria were confined to the clinical research unit from […] through Day 3. At admission, physical examination, vital signs, 12 lead ECG and weight were obtained, medical and medication history were updated if necessary, safety blood tests (hematology and chemistry), urinalysis, urine drug screen and an alcohol breath test were repeated and a urine pregnancy test was done for women of childbearing potential.
At each dose level, there were 2 sentinel subjects, (1 active, 1 placebo), who were dosed at least 48 hours in advance of the other subjects in their respective group. Following review of safety data, including physical examination, vital signs, and review of adverse events from the first 2 subjects, enrolment in the cohort continued.
A 12-lead ECG was performed on Day 1, within 60 minutes of infusion start (in triplicate), mid-way through the infusion, at the completion of the infusion, 30 minutes after completion of the infusion and at various timepoints following the end of the infusion.
Vital signs were recorded within 60 minutes pre-dose, at the mid-point of the infusion and post dose vitals were assessed at completion of the infusion, 0.5, 1, 2, 3, 4, 6, 9, 12, 24 and 48 hours post dose, after at least 3 minutes of rest in supine position.
Subjects returned to the study center 7 days after dosing, for the termination visit. A full physical examination, vital signs and weight were obtained, concomitant medications were updated if necessary, safety blood specimens (haematology and chemistry, PT and aPTT) and urine were collected for urinalysis and urine drug screening. A serum pregnancy test was done for women of childbearing potential and a 12-lead ECG was performed.
In this study dose limiting toxicity (DLT) was defined as any drug related ≥Grade 3 AEs occurring despite optimal therapeutic interventions (which included but were not limited to allergic/hypersensitivity reactions, dermatological reactions/infusion site reactions, haematological toxicities such as neutropenia, thrombocytopenia and anaemia and clinical chemistry abnormalities) experienced up to Day 7 (Termination Visit).
(§1) All subjects who received any amount of study drug were included in the safety analysis (Safety population).
The study was a double blinded, randomized, placebo-controlled study. The placebo administered was 0.9% sodium chloride.
On Day 1 (day of dosing), subjects were randomly assigned either peptide IV or Placebo IV. At each dose level, there were 2 sentinel subjects, (1 active, 1 placebo), who were dosed at least 48 hours in advance of the other subjects in their respective group. Following review of safety data, including physical examination, vital signs, and review of adverse events from the first 2 subjects, enrolment in the cohort continued. All subjects who met eligibility criteria were confined to the clinical research unit from Day −2 through Day 3. At admission, physical examination, vital signs, 12 lead ECG and weight were obtained, medical and medication history were updated if necessary, safety blood tests (hematology and chemistry), urinalysis, urine drug screen and an alcohol breath test were repeated and a urine pregnancy test was done for women of childbearing potential.
as §1

In the case of `CC(C)[C@H](NC(=O)[C@H](Cc1c[nH]c2ccccc12)NC(=O)[C@H](CCCNC(=N)N)NC(=O)[C@H](CCCNC(=N)N)NC(=O)[C@@H](NC(=O)[C@@H](NC(=O)[C@H](CCCNC(=N)N)NC(=O)[C@@H](NC(=O)[C@@H](NC(=O)[C@H](CCCNC(=N)N)NC(=O)[C@H](CCCNC(=N)N)NC(=O)[C@H](Cc1c[nH]c2ccccc12)NC(=O)[C@@H](NC(=O)[C@H](CCCNC(=N)N)NC(=O)[C@H](CCCNC(=N)N)NC(=O)[C@@H](NC(=O)[C@H](CCCNC(=N)N)NC(=O)[C@H](CCCNC(=N)N)NC(=O)[C@@H](NC(=O)[C@H](Cc1c[nH]c2ccccc12)NC(=O)[C@H](CCCNC(=N)N)NC(=O)[C@@H](N)CCCNC(=N)N)C(C)C)C(C)C)C(C)C)C(C)C)C(C)C)C(C)C)C(C)C)C(=O)N[C@@H](CCCNC(=N)N)C(=O)N[C@@H](CCCNC(=N)N)C(N)=O` [SEQ ID NO: 1] (H-RRWVRRVRRVWRRVVRVVRRWVRR-NH2), the “TEAE severity Grade 5, participants n (%)” value (Pooled SEQ ID NO: 1 (N = 35)) is reported as 0, the “Treatment-related TEAE: Abdominal distension, occurrences m” value (Pooled SEQ ID NO: 1 (N = 35)) is reported as 1 and the “Treatment-related TEAE: Abdominal distension, participants n (%)” value (Pooled SEQ ID NO: 1 (N = 35)) is reported as 1 (2.9%). The “Treatment-related TEAE: Blood and Lymphatic System Disorders, participants n (%)” value (Pooled SEQ ID NO: 1 (N = 35)) was 0, the “Treatment-related TEAE: Constipation, participants n (%)” value (Pooled SEQ ID NO: 1 (N = 35)) was 0 and the “Treatment-related TEAE: Diarrhea, occurrences m” value (Pooled SEQ ID NO: 1 (N = 35)) was 1. For the same molecule, the “Treatment-related TEAE: Diarrhea, participants n (%)” value (Pooled SEQ ID NO: 1 (N = 35)) was 1 (2.9%), the “Treatment-related TEAE: Dizziness, occurrences m” value (Pooled SEQ ID NO: 1 (N = 35)) was 1 and the “Treatment-related TEAE: Dizziness, participants n (%)” value (Pooled SEQ ID NO: 1 (N = 35)) was 1 (2.9%). For the same molecule, the “Treatment-related TEAE: Feeling hot, participants n (%)” value (Pooled SEQ ID NO: 1 (N = 35)) was 0, the “Treatment-related TEAE: Gastrointestinal Disorders, occurrences m” value (Pooled SEQ ID NO: 1 (N = 35)) was 3 and the “Treatment-related TEAE: Gastrointestinal Disorders, participants n (%)” value (Pooled SEQ ID NO: 1 (N = 35)) was 2 (5.7%). The “Treatment-related TEAE: General Disorders and Administration Site Conditions, occurrences m” value (Pooled SEQ ID NO: 1 (N = 35)) was 11, the “Treatment-related TEAE: General Disorders and Administration Site Conditions, participants n (%)” value (Pooled SEQ ID NO: 1 (N = 35)) was 10 (28.6%) and the “Treatment-related TEAE: Headache, occurrences m” value (Pooled SEQ ID NO: 1 (N = 35)) was 1. The “Treatment-related TEAE: Headache, participants n (%)” value (Pooled SEQ ID NO: 1 (N = 35)) was 1 (2.9%), the “Treatment-related TEAE: Infusion related reaction, occurrences m” value (Pooled SEQ ID NO: 1 (N = 35)) was 1 and the “Treatment-related TEAE: Infusion related reaction, participants n (%)” value (Pooled SEQ ID NO: 1 (N = 35)) was 1 (20.0%). For the same molecule, the “Treatment-related TEAE: Infusion site discomfort, occurrences m” value (Pooled SEQ ID NO: 1 (N = 35)) was 1, the “Treatment-related TEAE: Infusion site discomfort, participants n (%)” value (Pooled SEQ ID NO: 1 (N = 35)) was 1 (2.9%) and the “Treatment-related TEAE: Infusion site pain, occurrences m” value (Pooled SEQ ID NO: 1 (N = 35)) was 3. The “Treatment-related TEAE: Infusion site pain, participants n (%)” value (Pooled SEQ ID NO: 1 (N = 35)) was 3 (8.6%), the “Treatment-related TEAE: Infusion site reaction, occurrences m” value (Pooled SEQ ID NO: 1 (N = 35)) was 4 and the “Treatment-related TEAE: Infusion site reaction, participants n (%)” value (Pooled SEQ ID NO: 1 (N = 35)) was 4 (11.4%). The “Treatment-related TEAE: Infusion site swelling, occurrences m” value (Pooled SEQ ID NO: 1 (N = 35)) was 1, the “Treatment-related TEAE: Infusion site swelling, participants n (%)” value (Pooled SEQ ID NO: 1 (N = 35)) was 1 (2.9%) and the “Treatment-related TEAE: Injury, Poisoning, and Procedural Complications, occurrences m” value (Pooled SEQ ID NO: 1 (N = 35)) was 1. For the same molecule, the “Treatment-related TEAE: Injury, Poisoning, and Procedural Complications, participants n (%)” value (Pooled SEQ ID NO: 1 (N = 35)) was 1 (20.0%), the “Treatment-related TEAE: Macule, occurrences m” value (Pooled SEQ ID NO: 1 (N = 35)) was 1 and the “Treatment-related TEAE: Macule, participants n (%)” value (Pooled SEQ ID NO: 1 (N = 35)) was 1 (2.9%). The “Treatment-related TEAE: Musculoskeletal and Connective Tissue Disorders, occurrences m” value (Pooled SEQ ID NO: 1 (N = 35)) was 1, the “Treatment-related TEAE: Musculoskeletal and Connective Tissue Disorders, participants n (%)” value (Pooled SEQ ID NO: 1 (N = 35)) was 1 (2.9%) and the “Treatment-related TEAE: Myalgia, occurrences m” value (Pooled SEQ ID NO: 1 (N = 35)) was 1. For the same molecule, the “Treatment-related TEAE: Myalgia, participants n (%)” value (Pooled SEQ ID NO: 1 (N = 35)) was 1 (2.9%), the “Treatment-related TEAE: Oropharyngeal pain, participants n (%)” value (Pooled SEQ ID NO: 1 (N = 35)) was 0 and the “Treatment-related TEAE: Orthostatic hypotension, occurrences m” value (Pooled SEQ ID NO: 1 (N = 35)) was 1. The “Treatment-related TEAE: Orthostatic hypotension, participants n (%)” value (Pooled SEQ ID NO: 1 (N = 35)) was 1 (2.9%), the “Treatment-related TEAE: Pain in extremity, participants n (%)” value (Pooled SEQ ID NO: 1 (N = 35)) was 0 and the “Treatment-related TEAE: Phlebitis, occurrences m” value (Pooled SEQ ID NO: 1 (N = 35)) was 3. The “Treatment-related TEAE: Phlebitis, participants n (%)” value (Pooled SEQ ID NO: 1 (N = 35)) was 3 (8.6%), the “Treatment-related TEAE: Respiratory, Thoracic, and Mediastinal disorders, participants n (%)” value (Pooled SEQ ID NO: 1 (N = 35)) was 0 and the “Treatment-related TEAE: Skin and Subcutaneous Tissue Disorders, occurrences m” value (Pooled SEQ ID NO: 1 (N = 35)) was 1. The “Treatment-related TEAE: Skin and Subcutaneous Tissue Disorders, participants n (%)” value (Pooled SEQ ID NO: 1 (N = 35)) was 1 (2.9%), the “Treatment-related TEAE: Thrombocytopenia, participants n (%)” value (Pooled SEQ ID NO: 1 (N = 35)) was 0 and the “Treatment-related TEAE: Vascular Disorders, occurrences m” value (Pooled SEQ ID NO: 1 (N = 35)) was 4. For the same molecule, the “Treatment-related TEAE: Vascular Disorders, participants n (%)” value (Pooled SEQ ID NO: 1 (N = 35)) was 3 (8.6%), the “Treatment-related TEAE: Vessel puncture site erythema, occurrences m” value (Pooled SEQ ID NO: 1 (N = 35)) was 1 and the “Treatment-related TEAE: Vessel puncture site erythema, participants n (%)” value (Pooled SEQ ID NO: 1 (N = 35)) was 1 (2.9%). The “Treatment-related TEAE: Vessel puncture site pain, occurrences m” value (Pooled SEQ ID NO: 1 (N = 35)) was 1, the “Treatment-related TEAE: Vessel puncture site pain, participants n (%)” value (Pooled SEQ ID NO: 1 (N = 35)) was 3 (2.9%) and the “Treatment-related TEAE: Vomiting, occurrences m” value (Pooled SEQ ID NO: 1 (N = 35)) was 1. The “Treatment-related TEAE: Vomiting, participants n (%)” value (Pooled SEQ ID NO: 1 (N = 35)) was 1 (2.9%), the “Number of Participants Reporting at least: Onc TEAE Leading to Study Withdrawal, n (%)” value (Pooled active cohorts (N = 35)) was 0 and the “Number of Participants Reporting at least: One Dose-Limiting Toxicity, n (%)” value (Pooled active cohorts (N = 35)) was 0. The “Number of Participants Reporting at least: One Related TEAE, n (%)” value (Pooled active cohorts (N = 35)) was 13 (37.1%), the “Number of Participants Reporting at least: One Serious TEAE, n (%)” value (Pooled active cohorts (N = 35)) was 0 and the “Number of Participants Reporting at least: One TEAE Leading to Study Drug Discontinuation, n (%)” value (Pooled active cohorts (N = 35)) was 2 (5.7%). The “Number of Participants Reporting at least: One TEAE with Common Terminology Criteria for Adverse Events (CTCAE) Toxicity ≥ Grade 3, n (%)” value (Pooled active cohorts (N = 35)) was 0, the “Number of Participants Reporting at least: One TEAE, n (%)” value (Pooled active cohorts (N = 35)) was 31 (88.6%) and the “One Related TEAE, m” value (Pooled active cohorts (N = 35)) was 23. The “One TEAE Leading to Study Drug Discontinuation, m” value (Pooled active cohorts (N = 35)) was 4, the “One TEAE, m” value (Pooled active cohorts (N = 35)) was 72 and the “TEAE Severity Grade 1, m” value (Pooled active cohorts (N = 35)) was 64. The “TEAE Severity Grade 1, n (%)” value (Pooled active cohorts (N = 35)) was 30 (85.7%), the “TEAE Severity Grade 2, m” value (Pooled active cohorts (N = 35)) was 8 and the “TEAE Severity Grade 2, n (%)” value (Pooled active cohorts (N = 35)) was 5 (14.3%). The “overall safety and tolerability” value (healthy volunteers, 0.05 to 1 mg/kg, drug concentration below 0.50 mg/mL and dose rate below 25 mg/hour) was “safe and well tolerated” and the “severity of IRRs in relation to maximum dose rate” value (maximum dose rate higher (>25 mg/hr)) was “more severe”.
